{"source": "patent US8318801B2", "about": "“Cinnamic compounds and derivatives therefrom for the inhibition of histone deacetylase” (Naturewise Biotech & Medicals Corporation, priority 2009, dated 2012)", "format_in_all_cases": "cell-based", "key": {"[1]": {"system": "Human breast cancer MCF-7 cells", "test": "Inhibition of cancer cell growth and change of morphology", "procedure": "(§1) Three cancer cell lines, Rat C6 giloma cells, Human breast cancer MCF-7 cells, and Human lung cancer A549 cells, were cultured in Dulbecco's modified Eagle's medium (DMEM; Gibco) containing 10% fetal bovine serum (FBS) and 1% penicillin/streptomycin. All three cell lines were maintained at 37° C. in a humidified atmosphere of 95% air and 5% CO2. For the experiments, the cells were seeded in 6-well plates. After 24 hours, the cells were treated with different concentrations of the various compounds.\n(§2) Five cancer cell lines, Rat C6 giloma cells, Human breast cancer MCF-7 cells, Human glioma Hs683 cells, Human glioblastoma 05-MG cells, and Human lung cancer A549 cells, were cultured in Dulbecco's modified Eagle's medium (DMEM; Gibco) containing 10% fetal bovine serum (FBS) and 1% penicillin/streptomycin, and were kept at 37° C. in a humidified atmosphere of 95% air and 5% CO2. Human breast cancer. MDA-MB-231 cells were cultured in L-15 medium (Gibco) containing 10% fetal bovine serum (FBS), 1% penicillin/streptomycin, and 2 mM glutamine, and were maintained at 37° C. in a humidified atmosphere of 95% air and 0% CO2. For these experiments, the cells were seeded in 6-well plates or a 60-mm dish. After 24 hours, the cells were treated with different concentrations of the various compounds. […] Human glioblastoma 05-MG cells were treated with NBM-C-BCX-OS01 (1.0, 2.0, 4.0 μg/mL) and NBM-C-BMX-OS01 (1.0, 2.0, 4.0 μg/mL) for 72 hours (see FIG. 5(e)). […] The results were counted by a trypan blue exclusion assay (see FIG. 6(b))."}, "Rat C6 glioma cells": {"system": "Rat C6 glioma cells", "test": "Inhibition of cancer cell growth and change of morphology", "conditions": "for inhibition of cell growth: Rat C6 glioma cells", "procedure": "as §1, §2"}, "[2]": {"system": "acetyl-Histone H3 in Human lung cancer A549 cells", "test": "Immunostaining of HDAC associated proteins", "conditions": "7.5 μg/mL, 6 hrs (FIG. 3(c))", "procedure": "(§3) Rat C6 glioma cells, Human breast cancer MCF-7 cells, and Human lung cancer A549 cells were seeded in 6-well plates. After 24 hrs of incubation in medium+10 BSA, Human breast cancer MCF-7 cells were treated with NBM-HB-OS01 (10.0 μg/mL) and vorinostat (SAHA, 5 μM) for 24 hours. Rat C6 glioma cells were treated with NBM-C-BX-OS01 (7.5 μg/mL) and vorinostat (SAHA, 5 μM) for 6 hours. Human lung cancer A549 cells were treated with NBM-C-BA-OS01 (7.5 μg/mL) and vorinostat (SAHA, 5 μM) for 6 hours. The treated cells were fixed in 80% methanol for 30 minutes and then washed 3 times with PBS solution. Cells were permeabilized with 0.3% Triton X-100 for 30 minutes, and then blocked in 10% fetal bovine serum (FBS) in PBS-T (0.1% Twin 20 in PBS) for 1 hour. The treated cells were detected with primary antibody against acetyl-Histone H3, acetyl-tubulin, and Gelsolin."}, "[3]": {"system": "Human lung cancer A549 cells", "test": "Inhibition of cancer cell growth", "procedure": "as §1, §2"}, "[4]": {"system": "acetyl-tubulin in Rat C6 glioma cells", "test": "Immunostaining of HDAC associated proteins", "conditions": "7.5 μg/mL, 6 hrs (FIG. 2(e))", "procedure": "as §3"}, "[5]": {"system": "acetyl-Histone H3, acetyl-Histone H4, acetyl-tubulin, p21 in Human breast cancer MCF-7 cells", "test": "Immunoblotting of hyperacetylated histone, tubulin and p21", "conditions": "10 μg/mL (7.5 μg/mL elsewhere in the source) for 1, 2, 3 and 4 hrs (FIG. 2(d))", "procedure": "(§4) Rat C6 glioma cells and Human breast cancer MCF-7 cells were seeded 5×10^5 cells in a 60-mm dish or 1×10^6 cells in a 100-mm dish. After 24 hours, Rat C6 glioma cells were treated with various concentrations of NBM-HB-OS01 (2.5, 5.0, 7.5, 10.0 μg/mL) for 72 hours and were treated with 10.0 μg/mL. NBM-HB-OS01 for 1, 2, 3, and 4 hours. Human breast cancer MCF-7 cells were treated with 7.5 μg/mL NBM-C-BX-OS01 for 1, 2, 3, and 4 hours."}, "[6]": {"system": "Human colon cancer HT-29 cells", "test": "Inhibition of cancer cell growth", "conditions": "various concentrations, 48 hrs (FIG. 1(b))"}, "[7]": {"system": "p21 mRNA in Rat C6 glioma cells", "test": "RT-PCR of cell-cycle related mRNA expression", "conditions": "48 hrs, GAPDH internal control (FIG. 1(d))", "procedure": "The cell-cycle related mRNA expression was examined by RT-PCR. The total RNA was isolated from the treated Rat C6 glioma cells using the RNeasy Mini Kit (Qiagen) as described by the manufacturer. The cDNA was produced from 500 ng of total RNA using ReverTra-Plus™ (TOYOBO)."}, "[8]": {"system": "Human lung cancer A549 cells", "test": "Cell cycle analysis by flow cytometry (propidium iodide)", "conditions": "A549 cells, 2.5, 5.0, 7.5, 10.0 μg/mL, 24 hours (FIG. 1(c))", "procedure": "Human lung cancer A549 cells, Human glioma Hs683 cells and Human glioblastoma 05-MG cells were seeded 1×10^6 cells in a 100-mm dish. After 24 hours of incubation in DMEM+10% BSA, Human lung cancer A549 cells were treated with NBM-HB-OS01 (2.5, 5.0, 7.5, 10.0 μg/mL) for 24 hours and were treated with NBM-C-BCX-OS01 (2.5, 5.0, 7.5 μg/mL) and NBM-C-BMX-OS01 (2.5, 5, 7.5 μg/mL) for 72 hours. Human glioblastoma 05-MG cells were treated with NBM-C-BCX-OS01 (1.0, 2.0, 4.0 μg/mL) and NBM-C-BMX-OS01 (1.0, 2.0, 4.0 μg/mL) for 72 hours. Human glioma Hs683 cells were treated with NBM-C-BCX-OS01 (1.0, 2.0, 4.0 μg/mL). For cell cycle analysis, cells were fixed in 80% ethanol for 1 hour (or overnight) at −20° C. and then incubated with 2 μg/mL RNase A for 30 minutes at 37° C. Cells were stained with propidium iodide ([…] PI) in PBS and analyzed using a Becton Dickinson flow cytometer, BD FACScan and CellQuest acquisition and analysis programs. […] Human glioma Hs683 cells were treated with NBM-C-BCX-OS01 (1.0, 2.0, 4.0 μg/mL) for 72 hours."}, "[9]": {"system": "Gelsolin in Human breast cancer MCF-7 cells", "test": "Immunostaining of HDAC associated proteins", "conditions": "10 μg/mL, 24 hrs (FIG. 1(g))", "procedure": "as §3"}, "[10]": {"system": "acetyl-Histone H3, acetyl-Histone H4, acetyl-tubulin, p21 in Rat C6 glioma cells", "test": "Immunoblotting of hyperacetylated histone, tubulin and p21", "procedure": "as §4"}, "[11]": {"conditions": "various concentrations, 48 hrs (FIG. 1(a), 2(a))"}, "[12]": {"conditions": "Rat C6 glioma cells, 2.5, 5.0, 7.5, 10.0 μg/mL, 72 hrs, western blotting (FIG. 1(e))"}}, "note": "“Also recorded” adds a separate entry of the source."}
{"smiles": "COc1ccc(/C=C/C(=O)Nc2ccccc2N)c(OCc2ccccc2)c1CC=C(C)C", "note": "[NBM-C-BA-OS01, (E)-2-Benzoxy-3-prenyl-4-methoxy-N-(2-aminophenyl) cinamide]", "values": [{"measurement": "changes in morphology", "setting": "[1]; MCF-7 cells, 2.5, 5.0, 7.5 μg/mL, 72 hrs (FIG. 3(a))", "value": "exhibited changes in morphology"}, {"measurement": "inhibition of cell growth", "setting": "Rat C6 glioma cells; 7.5 μg/mL, 48 hrs (FIG. 4)", "value": "inhibited the Rat C6 glioma cell growth"}, {"measurement": "changes in morphology", "setting": "Rat C6 glioma cells; Rat C6 glioma cells, 2.5, 5.0, 7.5 μg/mL, 72 hrs (FIG. 3(b))", "value": "exhibited changes in morphology"}, {"measurement": "inhibition of cell growth", "setting": "Rat C6 glioma cells; 24 hrs, NBM-C-BA-OS01 5 μg/mL, others 2.5, 5.0 μg/mL (FIG. 5(a))", "value": "inhibited the cell growth"}, {"measurement": "acetylation of Histone H3 protein", "setting": "[2]", "value": "Hyperacetylation of Histone H3 protein was detected; also recorded: could induce the HDAC associated proteins expression"}]}
{"smiles": "COc1ccc(/C=C\\C(=O)NO)c(OCc2ccccc2)c1CC=C(C)C", "note": "[NBM-C-BX-OS01, (Z)-2-Benzoxy-3-prenyl-4-methoxy-N-hydroxy-cinamide]", "values": [{"measurement": "inhibition of cell growth", "setting": "[1]; MCF-7 cells, various concentrations, 24 hrs (FIG. 2(b))", "value": "Inhibition of cancer cells growth was shown; also recorded: arrested the cell growth"}, {"measurement": "inhibition of cell growth", "setting": "Rat C6 glioma cells; [11]", "value": "Inhibition of cancer cells growth was shown; also recorded: arrested the cell growth"}, {"measurement": "cell growth inhibition", "setting": "[3]; 72 hrs, NBM-C-BX-OS01 7.5, others 2.5, 5.0, 7.5 μg/mL (FIG. 5(b))", "value": "induced A549 cells growth inhibition in a dose-dependent manner; also recorded: induced A549 cell growth inhibition in dose-dependent amounts"}, {"measurement": "inhibition of cell growth", "setting": "[3]; various concentrations, 48 hrs (FIG. 2(c))", "value": "Inhibition of cancer cells growth was shown; also recorded: arrested the cell growth"}, {"measurement": "acetylated tubulin protein expression", "setting": "[4]", "value": "Overexpression of acetylated tubulin protein was observed; also recorded: could induce the HDAC associated proteins expression"}, {"measurement": "expression of acetylated H3", "setting": "[5]", "value": "increased in a dose-dependent manner"}, {"measurement": "expression of acetylated H4", "setting": "[5]", "value": "increased in a dose-dependent manner"}, {"measurement": "expression of acetylated-tubulin", "setting": "[5]", "value": "increased in a dose-dependent manner"}, {"measurement": "expression of p21", "setting": "[5]", "value": "increased in a dose-dependent manner"}]}
{"smiles": "COc1ccc(/C=C\\C(=O)OCc2ccccc2)c(OCc2ccccc2)c1CCC(C)(C)O", "note": "[NBM-HB-OS01]", "values": [{"measurement": "inhibition of cell growth", "setting": "Rat C6 glioma cells; [11]", "value": "Inhibition of cancer cell growth"}, {"measurement": "inhibition of cell growth", "setting": "Rat C6 glioma cells; various concentrations, 48 hrs (FIG. 1(a), 2(a)), listed as NBM-HB-HB-OS01", "value": "Inhibition of cancer cells was shown"}, {"measurement": "inhibition of cell growth", "setting": "[6]", "value": "Inhibition of cancer cell growth"}, {"measurement": "inhibition of cell growth", "setting": "[6]; listed as NBM-HB-HB-OS01", "value": "Inhibition of cancer cells was shown"}, {"measurement": "p21 mRNA (gene) expression", "setting": "[7]", "value": "increased p21 gene expression; also recorded: induced p21 mRNA expression"}, {"measurement": "cell cycle arrest phase", "setting": "[8]", "value": "arrested the human lung cancer A549 cells on the G0/G1 phase in a dose-dependent manner"}, {"measurement": "Gelsolin protein expression", "setting": "[9]", "value": "Overexpression of Gelsolin protein was observed; also recorded: could induce the HDAC associated proteins expression"}, {"measurement": "accumulation of p21", "setting": "[10]; Rat C6 glioma cells, 10 μg/mL for 1, 2, 3 and 4 hrs (FIG. 1(f))", "value": "seen in a dose-dependent manner"}, {"measurement": "accumulation of hyperacetylated histone H3", "setting": "[10]; [12]", "value": "detected in a dose-dependent manner"}, {"measurement": "accumulation of hyperacetylated histone H4", "setting": "[10]; [12]", "value": "detected in a dose-dependent manner"}, {"measurement": "accumulation of p21", "setting": "[10]; [12]", "value": "detected in a dose-dependent manner"}]}
